According to ChEMBL document CHEMBL1201862, “PubChem BioAssay data set” (2004):
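Tested at 5 concentrations; 48 h exposure; 96-well plates; endpoints linearly interpolated, else capped at highest concentration. GI50 is the concentration that inhibits growth by half.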 Calls of active or inactive are those of the source. Cut-off read from the data, not from the text of the source: active = GI50 up to about 1.1 µM and inactive = higher.

Assays:
Test in all cases: growth of human tumour cells (NCI), 48 h
[1] = test system: 786-0
[2] = test system: DU-145
[3] = test system: HCT-15
[4] = test system: K562
[5] = test system: M14
[6] = test system: MCF7
[7] = test system: MDA-MB-231
[8] = test system: MDA-MB-435
[9] = test system: MDA-N
[10] = test system: NCI-H460
[11] = test system: OVCAR-3
[12] = test system: SF-539
[13] = test system: SK-MEL-2
[14] = test system: SK-MEL-5
[15] = test system: SK-OV-3
[16] = test system: SR
[17] = test system: U-251
[18] = test system: UACC-257
[19] = test system: UO-31
[20] = test system: UACC-62

Measured: GI50

NC(=S)N/N=C\c1ccc(OCc2cccc(COc3ccc(/C=N/NC(N)=S)cc3)n2)cc1
43.7 µM: [3]
inactive: [1] > 100 µM | [2] 34.8 µM | [4] 18.6 µM | [5] 43.4 µM | [6] 32.5 µM | [7] 5.25 µM | [8] 63.8 µM | [9] 56.8 µM | [10] > 100 µM | [11] 32.7 µM | [12] > 100 µM | [13] 12.5 µM | [14] 5.06 µM | [15] > 100 µM | [16] 38.7 µM | [17] 45.4 µM | [18] 20.2 µM | [19] 15.3 µM

O=C1c2c(O)ccc(O)c2C(=O)c2c(NCCNC(=O)C(O)C(O)C(O)C(O)CO)ccc(NCCNC(=O)C(O)C(O)C(O)C(O)CO)c21 (configuration not stated)
active: [1] < 0.01 µM | [2] < 0.01 µM | [4] 0.0104 µM | [5] < 0.0195 µM | [6] < 0.01 µM | [7] 0.0467 µM | [8] 0.355 µM | [9] < 0.0494 µM | [10] < 0.01 µM | [11] 0.279 µM | [12] < 0.01 µM | [13] 1.08 µM | [14] 0.016 µM | [15] < 0.0233 µM | [16] < 0.01 µM | [17] 0.0109 µM | [18] 1.11 µM | [20] 0.0154 µM | [19] 0.0186 µM
0.0138 µM: [3]

CC(C)CNC(=O)CCc1cccc2c1oc1c(CCN)cccc12
inactive: [1] 12.4 µM | [2] 17.9 µM | [4] 1.98 µM | [5] 15.6 µM | [6] 20.6 µM | [7] 15 µM | [8] 12.2 µM | [9] 20.9 µM | [10] 18.2 µM | [11] 5.65 µM | [12] 16 µM | [13] 18.5 µM | [14] 14.2 µM | [15] 17 µM | [16] 8.43 µM | [17] 5.85 µM | [18] 11.7 µM | [20] 17.1 µM | [19] 12.4 µM
24.1 µM: [3]

O=C1/C(=C/c2ccc(Cl)cc2)Oc2ccccc21
inactive: [1] 15.7 µM | [2] 19.7 µM | [4] > 100 µM | [5] 43.8 µM | [6] 30.2 µM | [7] > 100 µM | [8] 79.3 µM | [9] 37.3 µM | [10] 26.4 µM | [11] > 100 µM | [12] 20.6 µM | [14] 20.4 µM | [15] > 100 µM | [16] 51.2 µM | [17] 36.3 µM | [18] 64.7 µM | [20] 58.6 µM | [19] 16.8 µM
66.7 µM: [3]

CC(=O)C(C(=N)C#N)C(=O)Nc1ccccc1 (configuration not stated)
> 100 µM: [3]
inactive: [1] > 100 µM | [2] > 100 µM | [4] > 100 µM | [5] > 100 µM | [6] > 100 µM | [7] > 100 µM | [8] > 100 µM | [9] > 100 µM | [10] > 100 µM | [11] > 100 µM | [12] > 100 µM | [13] > 100 µM | [14] > 100 µM | [15] > 100 µM | [16] > 100 µM | [17] > 100 µM | [18] > 100 µM | [20] > 100 µM

Cc1nc2sc3cccc(Cl)c3n2c(=O)c1/N=N/c1ccc(Cl)cc1
inactive: [1] > 100 µM | [2] > 100 µM | [4] 63 µM | [5] > 100 µM | [6] 87.5 µM | [7] 71 µM | [8] > 100 µM | [9] > 100 µM | [10] > 100 µM | [11] 46.7 µM | [12] > 100 µM | [13] > 100 µM | [14] 68.2 µM | [15] > 100 µM | [16] > 100 µM | [17] > 100 µM | [18] 98.6 µM
> 100 µM: [3]

CC(=O)OC(OC(C)=O)c1ccc2ccc3cccc4ccc1c2c34
inactive: [1] 36.1 µM | [2] 21 µM | [4] 38.7 µM | [5] 24.8 µM | [6] 23.6 µM | [7] 10.1 µM | [8] 18.9 µM | [9] 15.2 µM | [10] 21.4 µM | [11] 26.7 µM | [12] 38.7 µM | [14] 18.2 µM | [15] 23 µM | [16] 21 µM | [17] 14.3 µM | [18] 17.1 µM | [20] 12.7 µM | [19] 22.3 µM
33.7 µM: [3]

CC1C[C@]2(C)C(=S)Nc3ccccc3[C@@H]2Nc2ccccc21 (some centres not stated)
21.6 µM: [3]
inactive: [1] 16.3 µM | [2] 4 µM | [4] 26.6 µM | [5] 17.4 µM | [6] 13 µM | [7] 13.2 µM | [8] 14.9 µM | [9] 15 µM | [10] 13.2 µM | [11] 15.1 µM | [12] 19.3 µM | [13] 13 µM | [14] 17.7 µM | [16] > 100 µM | [18] 15.6 µM | [20] 18 µM | [19] 18.7 µM
